Reference: US20240270713A1, “NOVEL COMPOUND EXHIBITING THERAPEUTIC EFFECT ON INFLAMMATORY DISEASE AS P38 MAP KINASE INHIBITOR” (PRAZERTHERAPEUTICS INC., priority 2021, published 2024)

Assays:
TNFα = TNFα inhibitory ability by cellular inflammatory response (supernatant, antibody-coated plate), Raw264.7 cells; type: cell-based; settings: Mus musculus, 1 μM compound 24 hours, then 100 ng/ml LPS 24 hours, supernatant protein
Method: Evaluation of TNFα inhibitory ability by cellular inflammatory response
(§1) In order to identify inhibition of p-p38 MAPK, inhibition of p38 MAPK was identified after treating each compound to Raw264.7 cells obtained by converting macrophages that induces inflammation according to p-p38 MAPK activity cancerous cells. Briefly, Raw264.7 cells were cultured in Dulbecco's modified Eagle Medium supplemented with 10% fetal bovine serum and penicillin/streptomycin (100 U/ml). Raw264.7 cells were treated with 1 μM of Compounds 1 to 5 according to the present disclosure in a culture dish respectively and cultured for 24 hours in a CO2 incubator, and then treated with 100 ng/ml of LPS, followed by additional culture for 24 hours in a CO2 incubator.
After the cell culture was completed according to the experimental conditions, the supernatant was obtained and centrifuged for 3 minutes at 1200 rpm. The centrifuged supernatant was dispensed into an antibody-coated plate, reacted at room temperature for 2 hours, and washed with PBS-T (0.5% tween 20 in PBS). After dispensing detection antibody including HRP, a reaction was performed at room temperature for 1 hour, and the amount of protein was checked at a wavelength of 450 nm, the results of which are shown in Table 7 below.

IL-1β mRNA [1] = assay: Cytokine mRNA expression inhibitory ability, IL-1β, LPS-treated Raw264.7 cells; type: cell-based; settings: 1 μM compound 24 hours, then 100 ng/ml LPS 24 hours
Method: (§2) Evaluation of cytokine mRNA expression inhibitory ability according to inflammatory response
as §1
(§3) After cell culture was terminated according to the experimental conditions, cells were washed with cold phosphate buffered saline (PBS). The cells were then collected and centrifuged at 1200 rpm for 3 minutes. RNA was extracted according to the method provided in the Hybrid-R total RNA purification kit (GeneAll, 305-101). After measuring the concentration and purity of RNA using Nanodrop, cDNA was synthesized according to the method provided in TOPscript RT DryMIX (Enzynomics, RT200). After a reaction at 95° C. for 3 minutes using SYBR Green Mix along with primer, cDNA was subjected to repetitive reactions 30 times at 95° C. for 10 seconds, at 55° C. for 10 seconds, and at 72° C. for 30 seconds to determine the RNA expression level. The results are shown in Tables 5 and 6 below and FIGS. 1 and 2.

p38 alpha = p38 alpha (Homo sapiens (Human), UniProt Q16539); assay: p38α MAPK inhibitory ability (peptide/kinase mixture, development reagent, 445/520 nm); type: biochemical; settings: 1 hour at room temperature
Method: Evaluation of p38a mitogen-activated protein kinase (MAPK) inhibitory ability
To determine the ability to inhibit p38 MAPK, Compounds 1 to 5 were diluted to determine the inhibitory effect depending on a concentration. Briefly, the compounds were diluted at concentrations of 1000, 333, 111, 37.0, 12.3, 4.12, 1.37, 0.457, 0.152, and 0.0495 nM, respectively, and then a peptide/kinase mixture (final 7.07-28.3 ng p38 alpha, 2 μM serine/threonine 15, 50 mM HEPES pH 7.0, 0.01% NaN3) and ATP solution were added respectively. After reacting at room temperature for 1 hour, a development reagent was added, followed by a reaction again at room temperature for 1 hour.

p-p38 MAPK [2] = molecular target: T1, p-p38 MAPK (Mus musculus (Mouse), UniProt P47811); assay: p38 MAPK protein inhibitory ability in cells (p-p38 immunoblot, LPS-treated Raw264.7); type: cell-based; settings: Raw264.7 cells, 1 μM compound 24 hours, then 100 ng/ml LPS 6 hours
Method: Evaluation of p38 MAPK protein inhibitory ability in cells
as §1, with “Raw264.7 cells which are obtained by” for “Raw264.7 cells obtained by”, “MAPK activity into cancerous cells.” for “MAPK activity cancerous cells.”, “culture for 6 hours in” for “culture for 24 hours in”
(§4) After cell culture was terminated according to the experimental conditions, cells were washed with cold phosphate buffered saline (PBS). The cells were then collected and centrifuged at 1200 rpm for 3 minutes. The pellet was lysed with 2X sample buffer (1M Tris-HCl pH 6.8, 50% glycerol, 10% SDS, 2-mercaptoethanol, 1% bromophenol blue) and boiled at 100° C. for 10 minutes. The prepared protein samples were subjected to sodium dodecyl sulfate poly acrylamide gel electrophoresis and transferred to PVDF membrane (Millipore). For a specific binding reaction between the protein in the PVDF membrane and antibody, blocking was performed in a 5% bovine serum albumin (BSA, RMbio) solution. Subsequently, the BSA solution was discarded, and the membrane was washed with PBS-T (0.5% Tween 20 in PBS). The binding reaction of the protein in the membrane and antibody was performed overnight at 4° C. and washed again with PBS-T. Finally, a secondary antibody (Cell signaling Technology) conjugated with horse radish peroxidase (HRP) was diluted in PBS-T and reacted at room temperature for 2 hours. Luminata Forte HRP substrate (Millipore) was used to determine the amount of protein in the membrane, the results of which are shown in Table 4 below.

TNFα mRNA [3] = assay: Cytokine mRNA expression inhibitory ability, TNFα, LPS-treated Raw264.7 cells; type: cell-based; settings: 1 μM compound 24 hours, then 100 ng/ml LPS 24 hours
Method: as §2, §1, §3

IL-6 mRNA = assay: Cytokine mRNA expression inhibitory ability, IL-6, LPS-treated BV2 cells; type: cell-based; settings: 1 μM compound 24 hours, then 1000 ng/ml LPS 24 hours
Method: (§5) Evaluation of cytokine mRNA expression inhibitory ability by inflammatory response
(§6) In order to identify inhibition of p-p38 MAPK, the inhibition of p38 MAPK was identified by treating each compound to BV2 cells obtained by converting microglia that induces inflammation according to p-p38 MAPK activity in the brain into cancerous cells. Briefly, BV2 cells were cultured in Dulbecco's modified Eagle Medium supplemented with 10% fetal bovine serum and penicillin/streptomycin (100 U/ml). BV2 cells were treated with 1 μM of Compounds 4 to 6 according to the present disclosure in a culture dish respectively and cultured for 24 hours in a CO2 incubator, and then treated with 1000 ng/ml of LPS, followed by additional culture for 24 hours in a CO2 incubator.
(§7) After the cell culture was completed according to the experimental conditions, washing was performed with cold phosphate buffered saline (PBS). The cells were then collected and centrifuged at 1200 rpm for 3 minutes. RNA was extracted according to the method provided in the Hybrid-R total RNA purification kit (GeneAllR), 305-101). After measuring the concentration and purity of RNA using Nanodrop, cDNA was synthesized according to the method provided in TOPscript RT DryMIX (Enzynomics, RT200). […]

p-p38 MAPK [4] = molecular target: p-p38 MAPK (Homo sapiens (Human), UniProt Q16539); assay: p38 MAPK protein inhibitory ability in brain-derived cells (p-p38 immunoblot, SH-SY5Y); type: cell-based
Method: Evaluation of p38 MAPK protein inhibitory ability in brain-derived cells
In order to identify inhibition of p-p38 MAPK in brain cells, the inhibition of p38 MAPK was identified by inducing inflammation after treating each compound to SH-SYSY cells obtained by converting human neurons into cancerous cells. In short, SH-SY5Y cells were cultured in Minimum essential medium/Eagle's balanced salts supplemented with 10% fetal bovine serum and penicillin/streptomycin (100 U/ml). SH-SY5Y cells were treated with 1 μM of Compounds 4 and 6 according to the present disclosure in a culture dish respectively and cultured for 24 hours in a CO2 incubator, and then treated with 1000 ng/ml of LPS, followed by additional culture for 6 hours in a CO2 incubator.
as §4, with “The cells in the sediment were” for “The pellet was”, “Table 8” for “Table 4”

IL-1β mRNA [5] = assay: Cytokine mRNA expression inhibitory ability, IL-1β, LPS-treated BV2 cells; type: cell-based; settings: 1 μM compound 24 hours, then 1000 ng/ml LPS 24 hours
Method: as §5, §6, §7

TNFα mRNA [6] = assay: Cytokine mRNA expression inhibitory ability, TNFα, LPS-treated BV2 cells; type: cell-based; settings: 1 μM compound 24 hours, then 1000 ng/ml LPS 24 hours
Method: as §5, §6, §7

p-p38 MAPK [7] = molecular target: T1, p-p38 MAPK; assay: p38 MAPK protein inhibitory ability in normal brain cells (p-p38 immunoblot, primary neurons); type: cell-based, ICR mice
Description: Evaluation of p38 MAPK protein inhibitory ability in normal brain cells
In order to identify inhibition of p-p38 MAPK in normal cells rather than cancer cells, the inhibition of p38 MAPK was identified by inducing inflammation after treating neuron cells obtained from cerebrum of ICR mice with each compound. In short, neurons were collected from the cerebrum of the embryos of ICR mice 17-18 days after gestation and cultured for 7 days in a neurobasal medium supplemented with 2% B27 supplements, 2 mM glutamine, and penicillin/streptomycin (100 U/ml). Primary neurons were treated with 1 μM of Compounds 4 and 6 according to the present disclosure in a culture dish respectively and cultured for 24 hours in a CO2 incubator, and then treated with 1000 ng/ml of LPS, followed by additional culture for 6 hours in a CO2 incubator.
as §4, with “After the” for “After”, “conditions, washing was performed” for “conditions, cells were washed”, “The cells in the sediment were” for “The pellet was”, “reaction between” for “reaction of”, “Table 9” for “Table 4”

T1 sequence (P47811 whole entry): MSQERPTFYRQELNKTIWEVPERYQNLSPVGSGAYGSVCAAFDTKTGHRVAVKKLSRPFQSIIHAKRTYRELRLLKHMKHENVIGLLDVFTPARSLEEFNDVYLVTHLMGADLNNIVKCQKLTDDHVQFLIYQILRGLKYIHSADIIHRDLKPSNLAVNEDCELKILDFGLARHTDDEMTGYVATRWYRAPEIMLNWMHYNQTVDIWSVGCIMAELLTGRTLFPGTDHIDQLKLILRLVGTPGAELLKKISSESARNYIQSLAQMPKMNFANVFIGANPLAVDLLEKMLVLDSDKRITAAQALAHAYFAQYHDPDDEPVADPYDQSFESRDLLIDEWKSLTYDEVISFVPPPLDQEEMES
p38 alpha, sequence (Q16539 whole entry): as the sequence (P47811 whole entry) above, with H48L, A263T counted along it
p-p38 MAPK (Homo sapiens (Human), UniProt Q16539), sequence (Q16539 whole entry): as the sequence (P47811 whole entry) above, with H48L, A263T counted along it

SMILES	inhibition at 1 µM (TNFα)	IL-1β mRNA inhibition (IL-1β mRNA [1])	IC50 (p38 alpha)	inhibition at 1 µM (p-p38 MAPK [2])	TNFα mRNA inhibition (TNFα mRNA [3])	IL-6 mRNA inhibition (IL-6 mRNA)	p38 phosphorylation in cells derived from human (result in words) (p-p38 MAPK [4]; 1 μM)	inhibition at 1 µM (p-p38 MAPK [4]; 1 μM compound 24 hours, then 1000 ng/ml LPS 6 hours)	IL-1β mRNA inhibition (IL-1β mRNA [5])	TNFα mRNA inhibition (TNFα mRNA [6])	p38 phosphorylation due to inflammation in normal cells (result in words) (p-p38 MAPK [7]; primary mouse neurons, 1 μM)	inhibition at 1 µM (p-p38 MAPK [7]; primary neurons from cerebrum of ICR mouse embryos, 1 μM compound 24 hours, then 1000 ng/ml LPS 6 hours)
Cc1c(F)cc(C(=O)NC2CC2)cc1-c1ccc(C(=O)c2ccc(OCC(O)CO)cc2)cn1 (stereo not drawn) [Compound 1, N-cyclopropyl-3-(5-(4-(2,3-dihydroxypropoxy)benzoyl)pyridin-2-yl)-5-fluoro-4-methylbenzamide]	22.1%	21.4%	22.3 nM	11.3%	38.1%							
O=C(NC1CC1)c1ccc(Cl)c(-c2ccc(C(=O)c3c[nH]c4ccccc34)cc2)c1 [Compound 2, 6-chloro-N-cyclopropyl-4′-(1H-indole-3-carbonyl)-[1,1′-biphenyl]-3-carboxamide]	68.5%	24.4%	34.1 nM	69%	37.6%							
Cc1c(F)cc(C(=O)NC2CC2)cc1-c1ccc(C(=O)c2c[nH]c3cc(OCC(O)CO)ccc23)cn1 (stereo not drawn) [Compound 3, N-cyclopropyl-3-(5-(6-(2,3-dihydroxypropoxy)-1H-indole-3-carbonyl)pyridin-2-yl)-5-fluoro-4-methylbenzamide]	16.7%	12.3%	34.3 nM	39.7%	39.2%							
Cc1c(F)cc(C(=O)NC2CC2)cc1-c1ccc(C(=O)c2cn(Cc3ccccc3)c3ccccc23)cn1 [Compound 5, 3-(5-(1-benzyl-1H-indole-3-carbonyl)pyridin-2-yl)-N-cyclopropyl-5-fluoro-4-methylbenzamide]	23.8%	3.2%	193 nM	52.8%	4.1%							
Cc1c(F)cc(C(=O)NC2CC2)cc1-c1ccc(C(=O)c2cn(CC(O)CO)c3ccccc23)cn1 (stereo not drawn) [Compound 6, N-cyclopropyl-3-(5-(1-(2,3-dihydroxypropyl)-1H-indole-3-carbonyl)pyridin-2-yl)-5-fluoro-4-methylbenzamide]						14.4%	effectively inhibited p38 phosphorylation	22.8%	12.6%	15.7%	effectively inhibited p38 phosphorylation	60.7%
